The record followed here is patent US20250195519A1, “COMBINATION OF DASATINIB AND LOVASTATIN FOR USE IN METHODS FOR THE TREATMENT OF CARDIAC FIBROSIS” (INSERM (INSTITUT NATIONAL DE LA SANTÉ ET DE LA RECHERCHE …, priority 2022, published 2025).

Where two headings read alike, the source gives them in different places.

The test system of the test is human cardiac fibroblasts. Particulars: 72 h, 10 ng/ml TGFβ; for effect on TGFβ-induced collagen production: Sirius Red.

Experimental: Primary cardiac fibroblasts were isolated and cultured according to the method described previously [11]. […] The suspension was centrifuged at 300 g for 5 min and the cell pellet was resuspended in DMEM F12 medium (Sigma D6434) supplemented with 10% FBS, penicillin (20 U/mL)-streptomycin (20 μg/mL) and 2 mM glutamine and cultured in a 37° C., 5% CO2 incubator. Primary cardiac fibroblasts were used up to passage 3. Cardiac fibroblasts were exposed to 10 ng/ml TGFβ (T) for 72 h in the presence or absence of 5 μM lovastatin (L) or 5 nM dasatinib (D) or combination of 5 μM lovastatin and 5 nM dasatinib (DL).
Following treatment, cardiac fibroblasts were fixed in methanol, and incubated in the 0.1% Picrosirius red staining solution (Sigma-Aldrich, France) as per manufacturer's instructions.
Picrosirius red was solubilised in 0.1 N sodium hydroxide and the optical density was read at 540 nm (SERLABO Technologies, France).
Data are expressed as mean±SEM. Comparison between two groups was performed by Student's two-tailed t-test while comparison of multiple groups was performed by one-way ANOVA followed by a Bonferroni's post hoc test using GraphPad Prism version 5.00 (GraphPad Software, Inc).

In the case of `Cc1nc(Nc2ncc(C(=O)Nc3c(C)cccc3Cl)s2)cc(N2CCN(CCO)CC2)n1` [dasatinib, N-(2-chloro-6-methylphenyl)-2-[6-[4-(2-hydroxyethyl)-1-piperazinyl]-2-methyl-4-pyrimidinyl]amino]-5-thiazole carboxamide monohydrate], where the note is “5 nM dasatinib”, the “collagen values relative to control” value was “did not reach control values” and the “effect on TGFβ-induced collagen production” value is “modest but significant effects”.

Regarding `CCC(C)C(=O)OC1CC(C)C=C2C=CC(C)C(CCC3CC(O)CC(=O)O3)C21` (stereo not shown) [lovastatin, [8-[2-(4-hydroxy-6-oxo-oxan-2-yl)ethyl]-3,7-dimethyl-1,2,3,7,8,8a-hexahydronaphthalen-1-yl] 2-methylbutanoate], for the setting “5 μM lovastatin”, the “collagen values relative to control” value is reported as “did not reach control values” and the “effect on TGFβ-induced collagen production” value was “modest but significant effects”.
